How the values were obtained:
Mus musculus [1] = assay: Toxicity in mouse assessed as increase in bleeding time at 30 uM/kg, po administered 60 mins prior to tail incision after 1 hr relative to aspirin; assay type: organism-based; conditions: in vivo
Mus musculus [2] = assay: Ex vivo anticoagulant activity in mouse assessed as prothrombin time in plasma at 30 uM/kg, po after for 3 days; assay type: functional
Mus musculus [3] = assay: Toxicity in mouse assessed as increase in bleeding time at 30 uM/kg, po administered 60 mins prior to tail incision after 3 days relative to aspirin; assay type: organism-based; conditions: in vivo
Mus musculus [4] = assay: Ex vivo antithrombotic activity in mouse assessed as protection against collagen and adrenaline-induced hind limb paralysis or death at 30 uM/kg, po administered 60 mins prior to thrombotic challenge after 3 days; assay type: functional, Hindlimb
Mus musculus [5] = assay: Ex vivo antithrombotic activity in mouse assessed as protection against collagen and adrenaline-induced hind limb paralysis or death at 30 uM/kg, po administered 60 mins prior to thrombotic challenge after 1 hr; assay type: functional, Hindlimb

| SMILES | Activity (Mus musculus [1]) | Time (Mus musculus [2]) | Activity (Mus musculus [3]) | Activity (Mus musculus [4]) | Activity (Mus musculus [5]) |
| --- | --- | --- | --- | --- | --- |
| CCCNC(=O)c1cc2cc(C)c3ccccc3c2oc1=O | 17% | 10.2 s | 55% | 20% | 10% |
| CNC(=O)c1cc2cc(C)c3ccccc3c2oc1=O | 48% | 8.5 s | 65% | 40% | 35% |
| CCNC(=O)c1cc2cc(C)c3ccccc3c2oc1=O | 45% | 10.2 s | 68% | 30% | 30% |
| Cc1cc2cc(C(=O)N(C)C)c(=O)oc2c2ccccc12 | 58% | 10 s | 100% | 40% | 20% |
| Cc1cc2cc(C(=O)NC3CCCCC3)c(=O)oc2c2ccccc12 | 53% | 10.2 s | 82% | 40% | 35% |
| Cc1cc2cc(C(=O)N3CCCCC3)c(=O)oc2c2ccccc12 | 59% | 9.4 s | 91% | 29% | 20% |
| Cc1cc2cc(C(=O)N3CCN(C)CC3)c(=O)oc2c2ccccc12 | 17% | 8.1 s | 55% | 20% | 10% |
| Cc1cc2cc(C(=O)N3CCOCC3)c(=O)oc2c2ccccc12 | 33% | 11.6 s | 100% | 33% | 20% |
| Cc1cc2cc(C(=O)NCCCN3CCOCC3)c(=O)oc2c2ccccc12 | 50% | 10.2 s | 91% | 33% | 30% |
| Cc1ccc(NC(=O)c2cc3cc(C)c4ccccc4c3oc2=O)cc1 | 58% | 9.3 s | 63% | 40% | 30% |
| CNC(=O)c1cc2cc(/C=C/C(=O)c3ccc(C)cc3)c3ccccc3c2oc1=O | 17% | 9.9 s | 55% | 22% | 20% |
| CCNC(=O)c1cc2cc(/C=C/C(=O)c3ccc(C)cc3)c3ccccc3c2oc1=O | 33% | 11.1 s | 100% | 44% | 40% |
| CCCNC(=O)c1cc2cc(/C=C/C(=O)c3ccc(C)cc3)c3ccccc3c2oc1=O | 100% | 10.3 s | 127% | 33% | 40% |
| Cc1ccc(C(=O)/C=C/c2cc3cc(C(=O)N(C)C)c(=O)oc3c3ccccc23)cc1 | 59% | 10.5 s | 82% | 33% | 30% |
| Cc1ccc(C(=O)/C=C/c2cc3cc(C(=O)NC4CCCCC4)c(=O)oc3c3ccccc23)cc1 | 84% | 10.6 s | 109% | 44% | 40% |
| Cc1ccc(C(=O)/C=C/c2cc3cc(C(=O)N4CCCCC4)c(=O)oc3c3ccccc23)cc1 | 25% | 9.7 s | 45% | 42% | 30% |
| Cc1ccc(C(=O)/C=C/c2cc3cc(C(=O)N4CCN(C)CC4)c(=O)oc3c3ccccc23)cc1 | 34% | 8.7 s | 36% | 22% | 20% |
| Cc1ccc(C(=O)/C=C/c2cc3cc(C(=O)N4CCOCC4)c(=O)oc3c3ccccc23)cc1 | 17% | 11.4 s | 55% | 30% | 20% |
| Cc1ccc(C(=O)/C=C/c2cc3cc(C(=O)NCCCN4CCOCC4)c(=O)oc3c3ccccc23)cc1 | 25% | 11 s | 45% | 33% | 30% |
| Cc1ccc(NC(=O)c2cc3cc(/C=C/C(=O)c4ccc(C)cc4)c4ccccc4c3oc2=O)cc1 | 83% | 9.5 s | 109% | 44% | 40% |
| CC(=O)Oc1ccccc1C(=O)O [ASPIRIN] | 100% | – | – | – | 37% |
| CC(=O)CC(c1ccccc1)c1c(O)c2ccccc2oc1=O (stereo not given) [WARFARIN] | – | 116 s | 46% | 50% | – |
